The values that follow come from patent US6593310B1, “Treatment of osteoporosis” (Arthropharm Pty. Ltd., priority 2000, dated 2003).

The test system of data set [1] is bone. Nature of the data set: treatment of mammals with polysulfated polysaccharides, effect on bone. It counts as in vivo.
The test system of data set [2] is spinal fracture. The following applies: post-menopausal women; cited from earlier work.

As to calcium pentosan polysulfate, the “occurrence or spread of osteoporosis” value in data set [1] (low dosages producing blood levels of 0.01 to 100 micrograms per ml, low continuous or high pulsed therapy dose) is reported as “reduces the occurrence or spread of osteoporosis”.
On to pentosan polysulfate, for which the “effect on bone (bone fragility)” value in data set [1] (high repeated dosages, mammals) is reported as “causes bone fragility”.
Consider `NCCCC(O)(P(=O)(O)O)P(=O)(O)O` [Fosamax, alendronate], for which the “reduction of risk of spinal fracture” value in data set [2] is approximately 50%.
